Source: patent US20250084056A1, “SUBSTITUTED OXOISOINDOLINYL PIPERIDINE-2,6-DIONE COMPOUNDS” (BRISTOL-MYERS SQUIBB COMPANY, priority 2023, published 2025)

Key:
GSPT1 = GSPT1 (Homo sapiens, UniProt P15170+Q96SW2); assay: Degradation of GSPT1 (Western blot) in HCC1569 cells; assay type: cell-based; parameters: endogenous in cells; host or cells: HCC1569 (ATCC CRL-2330); settings: HCC1569 cancer cells, 24 h, up to a concentration of 10 μM, FIG. 1C
Experimental: The assay measured the ability of the compound to degrade Cyclin E1, inhibit RB phosphorylation, and to determine the selectivity against degradation of GSPT1 in cancer cells in vitro. HCC1569 cells (ATCC #CRL-2330) were cultured in RPMI media (Gibco, catalog A104910) supplemented with 10% FBS (Gibco, catalog 10091148). Cells were plated in tissue culture-treated 6 well plates at a density of 0.5 million cells per well in 2 mL media. The cells were then incubated overnight in a cell culture incubator (5% CO2 and 37° C.) and allowed to attach to the plate. The following day cells were dosed with compounds at the desired concentrations. Compounds were first resuspended in DMSO to make 10 mM stock, and 20 μM stock was prepared by diluting 10 mM stock in culture media. […] Total protein concentration was measured using a BCA assay kit (Thermo Scientific, cat #P123227). […] Protein was then detected by incubating blots with 2 mL of HRP detection reagent (Thermo scientific cat #A38556) for one minute at room temperature. Excess reagent was drained and gently removed on a Kimwipe and the chemiluminescence signal was detected using Fluorchem imaging system. […] Relative quantification of western blots was performed using ImageJ software, data was then normalized to loading control (β-Actin) first and then to the DMSO-treated sample. […]

Cyclin E1 = Cyclin E1 (Homo sapiens, UniProt P24864+Q96SW2); assay: Cyclin E1 Cellular Degradation Assay (MSD); assay type: cell-based; parameters: endogenous in cells; host or cells: OVCAR3
Outline: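 Cyclin E1 remaining after 24 h compound exposure of OVCAR3 cells was quantified in lysates by electrochemiluminescent MSD sandwich assay. DC50 (50% response concentration) and Dmax (maximum response) were calculated, with 110% response set by a reference compound at […].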

Chain of Cyclin E1 (P24864 whole entry): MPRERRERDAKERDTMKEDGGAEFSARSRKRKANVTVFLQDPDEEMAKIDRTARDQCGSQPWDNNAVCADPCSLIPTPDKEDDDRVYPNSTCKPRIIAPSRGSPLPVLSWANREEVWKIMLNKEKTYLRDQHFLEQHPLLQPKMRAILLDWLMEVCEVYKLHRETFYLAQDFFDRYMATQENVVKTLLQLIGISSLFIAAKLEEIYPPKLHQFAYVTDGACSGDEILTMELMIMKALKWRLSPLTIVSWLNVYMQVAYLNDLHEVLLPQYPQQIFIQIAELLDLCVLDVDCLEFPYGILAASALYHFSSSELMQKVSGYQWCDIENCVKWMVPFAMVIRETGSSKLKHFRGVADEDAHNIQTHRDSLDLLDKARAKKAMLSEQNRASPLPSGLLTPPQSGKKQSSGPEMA
Chain of Cyclin E1 (Q96SW2 whole entry): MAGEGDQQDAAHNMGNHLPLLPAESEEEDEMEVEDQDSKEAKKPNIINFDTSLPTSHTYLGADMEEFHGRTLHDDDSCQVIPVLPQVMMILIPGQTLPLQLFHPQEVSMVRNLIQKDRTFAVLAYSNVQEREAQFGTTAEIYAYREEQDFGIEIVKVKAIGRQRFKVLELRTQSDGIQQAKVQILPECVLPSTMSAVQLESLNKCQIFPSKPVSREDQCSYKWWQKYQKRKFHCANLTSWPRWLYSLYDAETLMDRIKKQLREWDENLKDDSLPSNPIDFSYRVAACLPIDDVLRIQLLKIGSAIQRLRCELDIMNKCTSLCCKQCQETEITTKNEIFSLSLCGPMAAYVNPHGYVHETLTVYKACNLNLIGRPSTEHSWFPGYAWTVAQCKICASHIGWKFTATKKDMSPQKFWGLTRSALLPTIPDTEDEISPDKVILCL
Chain of Cyclin E1 (Q16531 whole entry partner): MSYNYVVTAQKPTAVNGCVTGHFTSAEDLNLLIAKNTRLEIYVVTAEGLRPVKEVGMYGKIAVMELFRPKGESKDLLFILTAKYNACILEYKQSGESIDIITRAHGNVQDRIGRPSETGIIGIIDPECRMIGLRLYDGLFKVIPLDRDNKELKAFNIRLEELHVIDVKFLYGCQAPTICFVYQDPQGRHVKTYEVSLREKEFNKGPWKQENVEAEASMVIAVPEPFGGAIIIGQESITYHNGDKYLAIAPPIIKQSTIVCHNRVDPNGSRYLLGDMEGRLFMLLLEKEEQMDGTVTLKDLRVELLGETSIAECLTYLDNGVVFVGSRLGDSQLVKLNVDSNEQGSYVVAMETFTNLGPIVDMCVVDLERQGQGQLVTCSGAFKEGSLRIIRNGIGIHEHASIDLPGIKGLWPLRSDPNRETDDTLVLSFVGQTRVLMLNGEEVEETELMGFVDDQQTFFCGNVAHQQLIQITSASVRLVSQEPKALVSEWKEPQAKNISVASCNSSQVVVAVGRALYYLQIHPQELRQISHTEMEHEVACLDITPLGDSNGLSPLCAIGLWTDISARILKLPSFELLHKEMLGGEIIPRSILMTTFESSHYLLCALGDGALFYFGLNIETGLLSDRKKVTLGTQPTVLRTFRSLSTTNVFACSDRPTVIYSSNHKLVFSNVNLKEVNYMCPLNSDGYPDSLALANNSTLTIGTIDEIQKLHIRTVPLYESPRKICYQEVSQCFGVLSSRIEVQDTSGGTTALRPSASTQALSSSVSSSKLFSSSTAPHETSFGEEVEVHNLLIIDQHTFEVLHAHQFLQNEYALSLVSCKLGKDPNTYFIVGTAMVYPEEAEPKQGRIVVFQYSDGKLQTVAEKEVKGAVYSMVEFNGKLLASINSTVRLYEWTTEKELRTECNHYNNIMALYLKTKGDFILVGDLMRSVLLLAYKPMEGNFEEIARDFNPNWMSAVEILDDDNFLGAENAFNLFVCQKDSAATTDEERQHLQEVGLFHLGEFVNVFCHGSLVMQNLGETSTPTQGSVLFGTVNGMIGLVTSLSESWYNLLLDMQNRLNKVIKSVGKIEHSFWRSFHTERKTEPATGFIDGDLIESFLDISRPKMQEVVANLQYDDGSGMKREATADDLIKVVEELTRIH
Chain of GSPT1 (P15170 whole entry): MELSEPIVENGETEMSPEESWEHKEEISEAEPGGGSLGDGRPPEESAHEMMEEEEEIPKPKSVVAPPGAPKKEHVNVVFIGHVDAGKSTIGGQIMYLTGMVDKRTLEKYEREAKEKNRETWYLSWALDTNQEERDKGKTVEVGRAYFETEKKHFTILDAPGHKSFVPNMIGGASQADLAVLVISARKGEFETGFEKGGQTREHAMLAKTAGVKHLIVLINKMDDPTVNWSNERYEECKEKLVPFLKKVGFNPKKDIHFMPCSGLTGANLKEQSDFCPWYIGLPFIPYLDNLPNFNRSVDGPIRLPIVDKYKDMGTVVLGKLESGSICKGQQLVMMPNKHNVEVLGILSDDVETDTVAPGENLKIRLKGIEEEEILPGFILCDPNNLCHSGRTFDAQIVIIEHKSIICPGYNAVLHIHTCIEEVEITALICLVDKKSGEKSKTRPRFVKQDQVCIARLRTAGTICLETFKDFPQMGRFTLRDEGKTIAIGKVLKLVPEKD
Chain of GSPT1 (Q96SW2 whole entry): as the sequence (Q96SW2 whole entry) above
Chain of GSPT1 (Q16531 whole entry partner): as the sequence (Q16531 whole entry partner) above

DC50 (Cyclin E1; Cyclin E1 cellular degradation): 159 nM | Dmax (Cyclin E1; Cyclin E1 cellular degradation, maximum degradation): 107% | Ratio of GSPT1 DC50/Cyclin E1 DC50 (Cyclin E1; selectivity for degradation of Cyclin E1 over GSPT1): >88
SMILES: COc1c(COC(=O)Nc2ccc(Oc3ccc(F)c(F)c3)cc2)ccc2c1C(=O)N([C@H]1CCC(=O)NC1=O)C2 (single isomer, unassigned) [Example 35, {2-[(3 S)-2,6-dioxopiperidin-3-yl]-4-methoxy-3-oxo-2,3-dihydro-1H-isoindol-5-yl}methyl N-[4-(3,4-difluorophenoxy)phenyl]carbamate]
degradation of GSPT1 protein (GSPT1): did not significantly degrade GSPT1 protein
